For the assay, the system named is MDA-MB-436 cells. In words: Inhibition of proliferation of human breast cancer MDA-MB-436 cell line (CCK-8, 7 days). Type of assay: cell-based. To be noted: Homo sapiens, 168 h, proliferation of MDA-MB-436, 7 days. As for the experimental part: The cells were cultured in complete medium (DMEM medium +10% FBS+Insulin+glutathione). When the confluence reached about 80%, cells were digested and gently dispensed from the bottom of the dish with a 1 mL pipette. Cell suspension was collected and centrifuged at 500 rpm for 3 min. The supernatant was discarded, and the cell pellet were re-suspended in complete medium. The cells were seeded into a culture dish at an appropriate proportion, and then cultured in a 5% CO2 incubator at 37° C. The assay was carried out when the cells were in optimum condition and the confluence was reached 80%. Cells were harvested in the logarithmic growth phase by using 1 mL pipette gently and then centrifugated at 500 rpm for 3 min. The cells were resuspended by using refresh medium after removing the supernatant and then the cells were counted. The cells were seeded at 3000/well in a 96 well plate and incubated at 37° C. 5% CO2 incubator overnight. In the second day, cells were treated with compound at 8 serially diluted dose with 1000×final concentration in 100% DMSO. The compound was prepared as below: 1000×dilution tested compound solution to 40×test compound solution by adding 5μL, 1000×compound solution to 120 μL Medium (25-fold dilution). The solution was mixed by oscillation. DMSO was used as the control.
The medium was removed from the wells in the plate after the plate was taken out from incubator. Then, fresh medium of 195 μL/per well was added to the 96 well plate. 5μL/per well of 40×test compound solution was added into the 96 well plate. Finally, the plate was incubated for 7 days in a 37° C. 5% CO2 incubator. The medium containing compound was changed once on the fourth day. After 7 days, 20 μL of CCK-8 was added to each well and shake gently, then was cultured for 4 hours. The plate was shaken for 5 min after incubation, the absorbance values of 450 nm. and 650nm wavelengths were recorded respectively (OD=absorbance value of 450 nm−absorbance value of 650 nm) by using the multifunction readout instrument.
Data were analyzed by software GraphPad Prism 6.0. The inhibitory activity of compounds on cell proliferation was plotted using cell survival rate against the compound concentration as coordinates. Cell survival rate %=(ODcompound−ODbackground)/(ODDMSO−ODbackground)×100. The IC50 value was fitted by the s-shaped dose response curve equation: Y=100/(1+10^(log C−log IC50)), and C was the compound concentration.
Table 2 summarizes the inhibitory effect data (IC50) of the compounds on the proliferation of human breast cancer cells MDA-MB-436, wherein ++++ indicates 1<IC50≤10 nM; +++ indicates 10 nM<IC50≤100 nM; ++ indicates 100 nM<IC50≤1 μM; + indicates IC50>1 μM.
For the compound `CCn1c(=O)[nH]c2cc(CN3CCN(c4ccc(C(=O)NC)nc4C)CC3)c(C)cc2c1=O` [Example 52, 5-(4-((3-ethyl-6-methyl-2,4-dioxo-1,2,3,4-tetrahydroquinazolin-7-yl)methyl)piperazin-1-yl)-N,6-dimethylpicolinamide], the IC50 (as a rule, the point on the concentration scale where inhibition reaches its midpoint) was greater than 1000 nM.
The compound `CCNC(=O)c1ccc(N2CCN(Cc3ccc4c(c3)NC(=O)N(CC)C4)CC2)c(Cl)n1` [Example 118, 5-(4-((3-ethyl-2-oxo-1,2,3,4-tetrahydroquinazolin-7 yl)methyl)piperazin-1-yl)-6-chloro-N-ethylpicolinamide] yielded a half-maximal inhibitory concentration (IC50) of 10 to 100 nM.
The compound `CCn1c(=O)[nH]c2cc(CN3CCN(c4ccc(C(=O)NC)nc4F)CC3)cnc2c1=O` [Example 9, 5-(4-((3-ethyl-2,4-dioxo-1,2,3,4-tetrahydropyrido[3,2-d]pyrimidin-7-yl)methyl)piperazin-1-yl)-6-fluoro-N-methylpicolinamide] came in with an IC50 of 100 to 1000 nM.
As for `CCNC(=O)c1ccc(N2CCN(Cc3ccc4c(=O)n(CC)c(=O)[nH]c4c3)CC2)c(Br)n1` [Example 95, 6-bromo-N-ethyl-5-(4-((3-ethyl-2,4-dioxo-1,2,3,4-tetrahydroquinazolin-7-yl)methyl)piperazin-1-yl)picolinamide], the concentration for half-maximal inhibition (IC50) fell in the range of 10 to 100 nM.
Take `CCN1Cc2c(F)cc(CN3CCN(c4ccc(C(=O)NC)nc4Cl)CC3)cc2NC1=O` [Example 120, 6-chloro-5-(4-((3-ethyl-5-fluoro-2-oxo-1,2,3,4-tetrahydroquinazolin-7-yl)methyl)piperazin-1-yl)-N-methylpicolinamide]: the IC50 is 10 to 100 nM.
The compound `CCn1c(=O)[nH]c2cc(CN3CCN(c4ccc(C(=O)NC)nc4Br)CC3)ccc2c1=O` [Example 94, 6-bromo-5-(4-((3-ethyl-2,4-dioxo-1,2,3,4-tetrahydroquinazolin-7-yl)methyl)piperazin-1-yl)-N-methylpicolinamide] came in with an IC50 of 10 to 100 nM.
As for `CNC(=O)c1ccc(N2CCN(Cc3ccc4c(=O)n(C)c(=O)[nH]c4c3F)CC2)c(F)n1` [Example 138, 6-fluoro-5-(4-((8-fluoro-3-methyl-2,4-dioxo-1,2,3,4-tetrahydroquinazolin-7-yl)methyl)piperazin-1-yl)-N-methylpicolinamide], the figure is 10 to 100 nM.
For `CCn1c(=O)[nH]c2cc(-c3cccc(C(=O)Nc4ccc(C(=O)NC)nc4)c3)cnc2c1=O` [Example 45, 5-(3-(3-ethyl-2,4-dioxo-1,2,3,4-tetrahydropyrido[3,2-d]pyrimidin-7-yl)benzamido)-1-methylpicolinamide], the IC50 was greater than 1000 nM.
With `CCNC(=O)c1ccc(N2CCN(Cc3cc(Cl)c4c(=O)n(CC)c(=O)[nH]c4c3)CC2)c(Cl)n1` [Example 126, 6-chloro-5-(4-((5-chloro-3-ethyl-2,4-dioxo-1,2,3,4-tetrahydroquinazolin-7-yl)methyl)piperazin-1-yl)-N-ethylpicolinamide] the figure was 1 to 10 nM; with `CCn1c(=O)[nH]c2cc(CN3CCN(c4c(C)cc(C(=O)NC)nc4C)CC3)ccc2c1=O` [Example 72, 5-(4-((3-ethyl-2,4-dioxo-1,2,3,4-tetrahydroquinazolin-7-yl)methyl)piperazin-1-yl)-N,4,6-trimethylpicolinamide], greater than 1000 nM.
`CCn1c(=O)[nH]c2cc(CN3CCN(c4ccc(C(=O)NC)nc4C(F)(F)F)CC3)ccc2c1=O` [Example 23, 5-(4-((3-ethyl-2,4-dioxo-1,2,3,4-tetrahydroquinazolin-7-yl)methyl)piperazin-1-yl)-N-methyl-6-(trifluoromethyl)picolinamide]: the IC50 lay in the range of 100 to 1000 nM.
Compound `CCn1c(=O)[nH]c2cc(CN3CCN(c4ccc5[nH]ncc5c4)CC3)ccc2c1=O` [Example 112, 7-((4-(1H-indazol-5-yl)piperazin-1-yl)methyl)-3-ethylquinazoline-2,4(1H,3H)-dione] yielded an IC50 greater than 1000 nM.
`CCNC(=O)c1ccc(N2CCN(Cc3cnc4c(=O)n(CC)c(=O)[nH]c4c3)CC2)c(Cl)n1` [Example 102, 6-chloro-N-ethyl-5-(4-((3-ethyl-2,4-dioxo-1,2,3,4-tetrahydropyrido[3,2-d]pyrimidin-7-yl)methyl)piperazin-1-yl)picolinamide] registered an IC50 of 10 to 100 nM.
`CCn1c(=O)[nH]c2cc(CN3CCN(c4ccc(C(=O)NC)nc4C)CC3)cc(F)c2c1=O` [Example 56, 5-(4-((3-ethyl-5-fluoro-2,4-dioxo-1,2,3,4-tetrahydroquinazolin-7-yl)methyl)piperazin-1-yl)-N,6-dimethylpicolinamide] yielded an IC50 of 10 to 100 nM.
Take `CCNC(=O)c1ccc(N2CCN(Cc3ccc4c(=O)n(C)c(=O)[nH]c4c3)CC2)c(Cl)n1` [Example 100, 6-chloro-N-ethyl-5-(4-((3-methyl-2,4-dioxo-1,2,3,4-tetrahydroquinazolin-7-yl)methyl)piperazin-1-yl)picolinamide]: the IC50 was in the range of 100 to 1000 nM.
With `CCn1c(=O)[nH]c2cc(CN3CCN(c4ccc(C(=O)NC)nc4OC)CC3)cnc2c1=O` [Example 109, 5-(4-((3-ethyl-2,4-dioxo-1,2,3,4-tetrahydropyrido[3,2-d]pyrimidin-7-yl)methyl)piperazin-1-yl)-6-methoxy-N-methylpicolinamide] the figure was 100 to 1000 nM; with `CNC(=O)c1ccc(N2CCN(Cc3ccc4c(=O)n(CCF)c(=O)[nH]c4c3)CC2)c(C)n1` [Example 20, 5-(4-((3-(2-fluoroethyl)-2,4-dioxo-1,2,3,4-tetrahydroquinazolin-7-yl)methyl)piperazin-1-yl)-N,6-dimethylpicolinamide], 100 to 1000 nM.
In the case of `CCn1c(=O)[nH]c2cc(CN3CCN(c4cnc(C(=O)NC)cc4C)CC3)ccc2c1=O` [Example 50, 5-(4-((3-ethyl-2,4-dioxo-1,2,3,4-tetrahydroquinazolin-7-yl)methyl)piperazin-1-yl)-N,4-dimethylpicolinamide], the half-maximal inhibitory concentration (IC50) is greater than 1000 nM.
Regarding `CCn1c(=O)[nH]c2cc(CN3CCN(c4ccc(C(=O)NC)nc4F)CC3)cc(Cl)c2c1=O` [Example 136, 5-(4-((5-chloro-3ethyl-2,4-dioxo-1,2,3,4-tetrahydroquinazolin-7-yl)methyl)piperazin-1-yl)-6-fluoro-N-methylpicolinamide], the IC50 fell in the range of 1 to 10 nM.
In turn, `CCn1c(=O)[nH]c2nc(CN3CCN(c4ccc(C(=O)NC)nc4C)CC3)ccc2c1=O` [Example 74, 5-(4-((3-ethyl-2,4-dioxo-1,2,3,4-tetrahydropyrido[2,3-d]pyrimidin-7-yl)methyl)piperazin-1-yl)-N,6-dimethylpicolinamide] displayed an IC50 greater than 1000 nM.
For the compound `CCNC(=O)c1ccc(N2CCN(Cc3ccc4c(=O)n(C)c(=O)[nH]c4c3)CC2)c(C)n1` [Example 101, N-ethyl-6-methyl-5-(4-((3-methyl-2,4-dioxo-1,2,3,4-tetrahydroquinazolin-7-yl)methyl)piperazin-1-yl)picolinamide], the IC50 fell in the range of 100 to 1000 nM.
With `CCn1c(=O)[nH]c2cc(CN3CCN(c4ccn5c(=O)ccnc5c4)CC3)ccc2c1=O` [Example 38, 3-ethyl-7-((4-(4-oxo-4H-pyrido[1,2-a]pyrimidin-8-yl)piperazin-1-yl)methyl)quinazoline-2,4(1H,3H)-dione] the figure was greater than 1000 nM; with `CCn1c(=O)[nH]c2cc(CN3CCN(c4ccc(C(=O)NC)nc4Cl)CC3)c(C)cc2c1=O` [Example 66, 6-chloro-5-(4-((3-ethyl-6-methyl-2,4-dioxo-1,2,3,4-tetrahydroquinazolin-7-yl)methyl)piperazin-1-yl)-N-methylpicolinamide], 100 to 1000 nM.

(Values after patent US20240208969A1, “SUBSTITUTED FUSED BICYCLIC COMPOUNDS AS PARP INHIBITORS AND THE USE THEREOF” (IMPACT THERAPEUTICS (SHANGHAI), INC., priority 2021, published 2024).)
